Test results: patent US12331040B2 (Karyopharm Therapeutics Inc., priority 2013, dated 2025)
Where two headings read alike, the source gives them in different places.

Key:
Assay type in all cases: cell-based
[1] = system: 3T3 cells; assay: MTT cell proliferation assay; conditions: Mus musculus
In short: (§1)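 5,000-10,000 cells/well, overnight attach; 8 conc., 1 nM–30 μM; MTT ~4 h; formazan solubilized, OD 490 nm; % inhibition = (1−(ODo/OD))×100 vs neg. control; mostly duplicate, mean±SE.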

[2] = system: Z138 cells; assay: MTT cell proliferation assay; conditions: Homo sapiens
In short: as §1

[3] = system: MS751 cells; assay: MTT cell proliferation assay; conditions: Homo sapiens
In short: as §1

[4] = system: HCT-15 cells; assay: MTT cell proliferation assay; conditions: Homo sapiens
Experimental: (§2) The MTT cell proliferation assay was used to study the cytotoxic properties of the compounds. The assay was performed according to the method described by Roche Molecular Biochemicals, with minor modifications. The assay is based on the cleavage of the tetrazolium salt, MTT, in the presence of an electron-coupling reagent. The water-insoluble formazan salt produced must be solubilized in an additional step. Cells grown in a 96-well tissue culture plate were incubated with the MTT solution for approximately 4 hours. After this incubation period, a water-insoluble formazan dye formed. After solubilization, the formazan dye was quantitated using a scanning multi-well spectrophotometer (ELISA reader). […] The cells were seeded at 5,000-10,000 cells in each well of 96-well plate in 100 μL of fresh culture medium and were allowed to attach overnight. The stock solutions of the compounds were diluted in 100 μL cell culture medium to obtain eight concentrations of each test compound, ranging from 1 nM to 30 μM. […] All optical densities were measured at 490 nm using a Vmax Kinetic Microplate Reader (Molecular Devices). In most cases, the assay was performed in duplicate and the results were presented as a mean percent inhibition to the negative control±SE. The following formula was used to calculate the percent of inhibition: Inhibition (%)=(1−(ODo/OD))×100.
(§3) The M24 cell line is derived from human melanoma cells. The U2OS cell line is a human osteosarcoma cell line expressing wild type p53 and Rb, but lacking p16. The MM1S cell line is a multiple myeloma cell line; the parent cell line, MM.1, was established from peripheral blood of a multiple myeloma patient who had become resistant to steroid-based therapy. The RPMI8226 cell line is derived from human B lymphocyte cells. NHDF cells are normal human dermal fibroblast cells. The MRC-5 cell line is derived from normal lung tissue of a fetus. The PC3 cell line is a human prostate cancer cell line. The DU-145 cell line is a human prostate cancer cell line. The MDA-MB-231 cell line is a human breast adenocarcinoma cell line. The MDA-MB-468 cell line is a human breast carcinoma cell line. HL-60 cells are human promyelocytic leukemia cells. Hep G2 cells are human hepatocellular carcinoma cells. HEP 3B cells are human hepatocellular carcinoma cells. The DLD-1 cell line is a colorectal adenocarcinoma cell line. The HCT-15 cell line is a human colon carcinoma cell line. The Colo-205 cell line is derived from a human adenocarcinoma of the colon. The LoVo cell line is a human colon adenocarcinoma cell line.

[5] = system: MM1S cells; assay: MTT cell proliferation assay; conditions: Homo sapiens, MM1.S
Experimental: as §2, §3

[6] = system: NHDF cells; assay: MTT cell proliferation assay; conditions: Homo sapiens
Experimental: as §2, §3

[7] = system: LoVo cells; assay: MTT cell proliferation assay; conditions: Homo sapiens
Experimental: as §2, §3

[8] = system: DU-145 cells; assay: MTT cell proliferation assay; conditions: Homo sapiens
Experimental: as §2, §3

[9] = system: U2OS cells; assay: MTT cell proliferation assay; conditions: Homo sapiens
Experimental: as §2, §3

[10] = system: MDA-MB-231 cells; assay: MTT cell proliferation assay; conditions: Homo sapiens
Experimental: as §2, §3

[11] = system: Colo-205 cells; assay: MTT cell proliferation assay; conditions: Homo sapiens
Experimental: as §2, §3

[12] = system: MDA-MB-468 cells; assay: MTT cell proliferation assay; conditions: Homo sapiens
Experimental: as §2, §3

[13] = MTT cell proliferation assay; conditions: human, MRC-5 cells (normal fetal lung cell line); MRC-5 cells; 72-hour MTT
Experimental: as §2, §3

[14] = system: PC3 cells; assay: MTT cell proliferation assay; conditions: Homo sapiens, PC-3
Experimental: as §2, §3

[15] = system: DLD-1 cells; assay: MTT cell proliferation assay; conditions: Homo sapiens
Experimental: as §2, §3

[16] = NIH3T3, 72-hour MTT, read-out: 3T3 MTT IC50
[17] = NIH3T3, approximately 64-72 hours incubation, read-out: MTT Assay IC50 3T3
[18] = Z-138, 72 h, Z-138 cells, 72-hour MTT, read-out: Z-138 MTT IC50
[19] = Z-138, Z138 cells, approximately 64-72 hours incubation, read-out: MTT Assay IC50 Z-138
[20] = MS751, 72 h, MS751 cells, 72-hour MTT, read-out: MS751 MTT IC50
[21] = MS751, MS751 cells, approximately 64-72 hours incubation, read-out: MTT Assay IC50 MS-751
[22] = HCT-15 cell line, read-out: MTT Assay IC50, HCT-15
[23] = HCT-15 cells, 72-hour MTT, read-out: HCT-15 MTT IC50
[24] = MM1S cell line, read-out: MTT Assay IC50, MM1S
[25] = MM1S cells, 72-hour MTT, read-out: MM1S MTT IC50
[26] = NHDF cell line, read-out: MTT Assay IC50, NHDF
[27] = NHDF cells, 72-hour MTT, read-out: NHDF MTT IC50
[28] = LoVo cell line, read-out: MTT Assay IC50, LoVo
[29] = LoVo cells, 72-hour MTT, read-out: LoVo MTT IC50
[30] = DU-145 cell line, read-out: MTT Assay IC50, DU-145
[31] = DU-145 cells, 72-hour MTT, read-out: DU-145 MTT IC50
[32] = U2OS cell line, read-out: MTT Assay IC50, U2OS
[33] = U2OS cells, 72-hour MTT, read-out: U2OS MTT IC50
[34] = MDA-MB-231 cell line, read-out: MTT Assay IC50, MDA-MB-231
[35] = MDA-MB-231 cells, 72-hour MTT, read-out: MDA-MB-231 MTT IC50
[36] = Colo-205 cell line, read-out: MTT Assay IC50, Colo-205
[37] = Colo-205 cells, 72-hour MTT, read-out: Colo-205 MTT IC50
[38] = MDA-MB-468 cell line, read-out: MTT Assay IC50, MDA-MB-468
[39] = MDA-MB-468 cells, 72-hour MTT, read-out: MDA-MB-468 MTT IC50
[40] = PC3 cells, 72-hour MTT, read-out: PC3 MTT IC50
[41] = DLD-1 cell line, read-out: MTT Assay IC50, DLD-1
[42] = DLD-1 cells, 72-hour MTT, read-out: DLD-1 MTT IC50

Compound | IC50 [1, 16] | IC50 [1, 17] | IC50 [2, 18] | IC50 [2, 19] | IC50 [3, 20] | IC50 [3, 21] | IC50 [4, 22] | IC50 [4, 23] | IC50 [5, 24] | IC50 [5, 25] | IC50 [6, 27] | IC50 [7, 29] | IC50 [8, 31] | IC50 [9, 33] | IC50 [10, 35] | IC50 [11, 37] | IC50 [12, 39] | IC50 at 72 h [13] | IC50 [14, 40] | IC50 [15, 42] | further results
Nc1ccc(/C=C/C(=O)NCc2cc3cc(-c4ccc(S(=O)(=O)N5CCOCC5)cc4)cc(Cl)c3o2)cn1 [Compound 504, (E)-3-(6-Aminopyridin-3-yl)-N-((7-chloro-5-(4-(morpholinosulfonyl)phenyl)benzofuran-2-yl)methyl)acrylamide] | 350 nM | 100 to 5000 nM | 10 nM | < 100 nM | 30 nM | < 100 nM | < 100 nM | 80 nM | 100 to 5000 nM | 290 nM | 60 nM | 180 nM | 80 nM | 40 nM | 220 nM | 80 nM | 1000 nM | 20 nM | 50 nM | 110 nM | IC50 [6, 26]: < 100 nM; IC50 [7, 28]: 100 to 5000 nM; IC50 [8, 30]: < 100 nM; IC50 [9, 32]: < 100 nM; IC50 [10, 34]: 100 to 5000 nM; IC50 [11, 36]: < 100 nM; IC50 [12, 38]: 100 to 5000 nM; IC50 ([14]; PC3 cell line, read-out: MTT Assay IC50, PC3): < 100 nM; IC50 [15, 41]: 100 to 5000 nM
Nc1ccc(/C=C/C(=O)NCc2cc3cc(-c4ccc(C(=O)N5CCOCC5)cc4)cc(C(F)(F)F)c3o2)cn1 [Compound 510, (E)-3-(6-aminopyridin-3-yl)-N-((5-(4-(morpholine-4-carbonyl)phenyl)-7-(trifluoromethyl)benzofuran-2-yl)methyl)acrylamide] | > 10000 nM | > 10000 nM | 100 nM | < 100 nM | 100 nM | 100 to 5000 nM | 100 to 5000 nM | 1270 nM | < 100 nM | 90 nM | 80 nM | 230 nM | 1470 nM | 8 nM | 1410 nM | 160 nM | 30 nM | 50 nM | 20 nM | 950 nM | IC50 [6, 26]: < 100 nM; IC50 [7, 28]: 100 to 5000 nM; IC50 [8, 30]: 100 to 5000 nM; IC50 [9, 32]: < 100 nM; IC50 [10, 34]: 100 to 5000 nM; IC50 [11, 36]: 100 to 5000 nM; IC50 [12, 38]: < 100 nM; IC50 [15, 41]: 100 to 5000 nM
Nc1ccc(/C=C/C(=O)NCc2cc3cc(-c4ccc(C(=O)N5CCC(F)(F)CC5)cn4)cc(C(F)(F)F)c3o2)cn1 [Compound 585, (E)-3-(6-aminopyridin-3-yl)-N-((5-(5-(4,4-difluoropiperidine-1-carbonyl)pyridin-2-yl)-7-(trifluoromethyl)benzofuran-2-yl)methyl)acrylamide] | > 10000 nM | > 10000 nM | 20 nM | < 100 nM | 100 nM | < 100 nM | – | 270 nM | – | 90 nM | 5820 nM | 260 nM | 4900 nM | 60 nM | 1120 nM | 170 nM | 200 nM | 130 nM | 140 nM | 940 nM | –
